Columns and labels:
[1] = Half life (t) of enzymatic phosphodiester hydrolysis of compound towards calf spleen (CS-PDE) at a concentration of 20 microg; type: ADME, Bos taurus; settings: cattle, calf spleen phosphodiesterase (CS-PDE)
[2] = Half life (t) of enzymatic phosphodiester hydrolysis of compound towards snake venom (SV-PDE) at a concentration of 4 microg; type: ADME; settings: serpentes, snake venom phosphodiesterase (SV-PDE)

SMILES | half-life [1] [min] | half-life [2] [min]
COP(=O)(OC[C@H]1O[C@@H](n2ccc(N)nc2=O)C[C@@H]1OP(=O)(O)OC[C@H]1O[C@@H](n2cc(I)c3c(=O)[nH]c(N)nc32)C[C@@H]1OP(=O)(O)OC[C@H]1O[C@@H](n2ccc(N)nc2=O)C[C@@H]1O)O[C@H]1C[C@H](n2cc(I)c3c(=O)[nH]c(N)nc32)O[C@@H]1COP(=O)(O)O[C@H]1C[C@H](n2ccc(N)nc2=O)O[C@@H]1COP(=O)(O)O[C@H]1C[C@H](n2cc(I)c3c(=O)[nH]c(N)nc32)O[C@@H]1COP(=O)(O)O[C@H]1C[C@H](n2ccc(N)nc2=O)O[C@@H]1COP(=O)(O)O[C@H]1C[C@H](n2cc(I)c3c(=O)[nH]c(N)nc32)O[C@@H]1COP(=O)(O)O (some centres not stated) | > 1200 | 17
Nc1ccn([C@H]2C[C@H](OP(=O)(O)OC[C@H]3O[C@@H](n4cnc5c(=O)[nH]c(N)nc54)C[C@@H]3OP(=O)(O)OC[C@H]3O[C@@H](n4ccc(N)nc4=O)C[C@@H]3OP(=O)(O)OC[C@H]3O[C@@H](n4cnc5c(=O)[nH]c(N)nc54)C[C@@H]3OP(=O)(O)OC[C@H]3O[C@@H](n4ccc(N)nc4=O)C[C@@H]3OP(=O)(O)OC[C@H]3O[C@@H](n4cnc5c(=O)[nH]c(N)nc54)CC3OP(=O)(O)OC[C@H]3O[C@@H](n4ccc(N)nc4=O)C[C@@H]3O)[C@@H](COP(=O)(O)O[C@H]3C[C@H](n4cnc5c(=O)[nH]c(N)nc54)O[C@@H]3COP(=O)(O)O)O2)c(=O)n1 (some centres not stated) | 82 | 2.5
COP(=O)(OC[C@H]1O[C@@H](n2ccc(N)nc2=O)C[C@@H]1OP(=O)(O)OC[C@H]1O[C@@H](n2cc(C)c3c(=O)[nH]c(N)nc32)C[C@@H]1OP(=O)(O)OC[C@H]1O[C@@H](n2ccc(N)nc2=O)C[C@@H]1O)O[C@H]1C[C@H](n2cc(C)c3c(=O)[nH]c(N)nc32)O[C@@H]1COP(=O)(O)O[C@H]1C[C@H](n2ccc(N)nc2=O)O[C@@H]1COP(=O)(O)O[C@H]1C[C@H](n2cc(C)c3c(=O)[nH]c(N)nc32)O[C@@H]1COP(=O)(O)O[C@H]1C[C@H](n2ccc(N)nc2=O)O[C@@H]1COP(=O)(O)O[C@H]1C[C@H](n2cc(C)c3c(=O)[nH]c(N)nc32)O[C@@H]1COP(=O)(O)O (some centres not stated) | > 1200 | 16
COP(=O)(OC[C@H]1O[C@@H](n2ccc(N)nc2=O)C[C@@H]1OP(=O)(O)OC[C@H]1O[C@@H](n2ccc3c(=O)[nH]c(N)nc32)C[C@@H]1OP(=O)(O)OC[C@H]1O[C@@H](n2ccc(N)nc2=O)C[C@@H]1O)O[C@H]1C[C@H](n2ccc3c(=O)[nH]c(N)nc32)O[C@@H]1COP(=O)(O)O[C@H]1C[C@H](n2ccc(N)nc2=O)O[C@@H]1COP(=O)(O)O[C@H]1C[C@H](n2ccc3c(=O)[nH]c(N)nc32)O[C@@H]1COP(=O)(O)O[C@H]1C[C@H](n2ccc(N)nc2=O)O[C@@H]1COP(=O)(O)O[C@H]1C[C@H](n2ccc3c(=O)[nH]c(N)nc32)O[C@@H]1COP(=O)(O)O (some centres not stated) | ~1000 | 1.3
Nc1nc2c(ncn2[C@H]2C[C@H](O)[C@@H](COP(=O)(O)O[C@H]3C[C@H](n4cc(I)c5c(=O)[nH]c(N)nc54)O[C@@H]3COP(=O)(O)O[C@H]3C[C@H](n4cc(I)c5c(=O)[nH]c(N)nc54)O[C@@H]3COP(=O)(O)O[C@H]3C[C@H](n4cc(I)c5c(=O)[nH]c(N)nc54)O[C@@H]3COP(=O)(O)O[C@H]3C[C@H](n4cc(I)c5c(=O)[nH]c(N)nc54)O[C@@H]3COP(=O)(O)O[C@H]3C[C@H](n4cc(I)c5c(=O)[nH]c(N)nc54)O[C@@H]3COP(=O)(O)O)O2)c(=O)[nH]1 | > 1200 | 26
Nc1nc2c(ccn2[C@H]2C[C@H](OP(=O)(O)OC[C@H]3O[C@@H](n4ccc5c(=O)[nH]c(N)nc54)C[C@@H]3OP(=O)(O)OC[C@H]3O[C@@H](n4ccc5c(=O)[nH]c(N)nc54)C[C@@H]3OP(=O)(O)OC[C@H]3O[C@@H](n4ccc5c(=O)[nH]c(N)nc54)C[C@@H]3OP(=O)(O)OC[C@H]3O[C@@H](n4ccc5c(=O)[nH]c(N)nc54)C[C@@H]3OP(=O)(O)OC[C@H]3O[C@@H](n4cnc5c(=O)[nH]c(N)nc54)C[C@@H]3O)[C@@H](COP(=O)(O)O)O2)c(=O)[nH]1 | > 1200 | 2.5

Source: ChEMBL document CHEMBL1128106, “Oligonucleotide duplex stability controlled by the 7-substituents of 7-deazaguanine bases” (Bioorg Med Chem Lett, 1995)
